Measurements published in ChEMBL document CHEMBL5244229, “Thiazole-containing compounds as therapeutic targets for cancer therapy” (Eur J Med Chem, 2020).
In brackets after ≈: the same amount, converted by molar mass.

What was measured:
[1] = system: HCT-116; test: Antiproliferative activity against human HCT-116 cells assessed as reduction in cell viability incubated for 24 hrs by Celltiter-Glo cell viability assay; type: functional, cell-based; conditions: HCT-116, 24 h
[2] = system: MV4-11; test: Anticancer activity against human MV4-11 cells; type: functional, cell-based
[3] = system: HCT-116; test: Anticancer activity against human HCT-116 cells; type: functional, cell-based
[4] = system: MV4-11; test: Antiproliferative activity against human MV4-11 cells assessed as reduction in cell viability incubated for 24 hrs by Celltiter-Glo cell viability assay; type: functional, cell-based; conditions: MV4-11, 24 h
[5] = system: MCF7; test: Antiproliferative activity against human MCF7 cells assessed as reduction in cell viability incubated for 24 hrs by Celltiter-Glo cell viability assay; type: functional, cell-based; conditions: MCF7, 24 h
[6] = system: BALB/3T3; test: Antiproliferative activity against mouse BALB/3T3 cells assessed as reduction in cell viability incubated for 24 hrs by Celltiter-Glo cell viability assay; type: functional, cell-based; conditions: BALB/3T3, 24 h
[7] = system: HepG2; test: Cytotoxicity against human HepG2 cells assessed as reduction in cell viability at 200 uM incubated for 24 hrs by MTT assay; type: functional, cell-based; conditions: HepG2, 24 h
[8] = Cytotoxicity against human HPDE cells assessed as induction of cell death at 5.51 uM; type: functional
[9] = system: A549; test: Antiproliferative activity against human A549 cells relative to control; type: functional
[10] = system: HCT-8; test: Anticancer activity against human HCT-8 cells at 5 microg/ml relative to control; type: functional; conditions: dose 5 µg/ml
[11] = system: PC-3; test: Anticancer activity against human PC-3 cells; type: functional, cell-based
[12] = system: PC-3; test: Cytotoxicity against human PC-3 cells; type: functional
[13] = system: HepG2; test: Anticancer activity against human HepG2 cells assessed as inhibition of cell proliferation at 25 uM measured after 24 hrs by MTT assay; type: functional, cell-based; conditions: HepG2, 24 h
[14] = Anticancer activity against human LNCaP/AR cells; type: functional, cell-based
[15] = system: A549; test: Anticancer activity against human A549 cells assessed as reduction of cell viability at 25 micromol relative to control; type: functional; conditions: dose 25 µmol
[16] = system: A549; test: Anticancer activity against human A549 cells assessed as reduction of cell viability at 100 micromol relative to control; type: functional; conditions: dose 100 µmol
[17] = system: MCF7; test: Cytotoxicity against human MCF7 cells assessed as inhibition of cell growth; type: functional
[18] = system: NCI-H460; test: Cytotoxicity against human NCI-H460 cells assessed as inhibition of cell growth; type: functional
[19] = system: SF-268; test: Cytotoxicity against human SF-268 cells assessed as inhibition of cell growth; type: functional
[20] = system: HepG2; test: Cytotoxicity against human HepG2 cells assessed as reduction in cell viability at 200 uM incubated for 48 hrs by MTT assay; type: functional
[21] = Antiproliferative activity against human SK-RC-52 cells assessed as reduction in cell viability incubated for 4 days by MTT assay; type: functional, cell-based; conditions: SK-RC-52, 96 h
[22] = system: SW-620; test: Antiproliferative activity against human SW620 cells assessed as reduction in cell viability incubated for 4 days by MTT assay; type: functional, cell-based; conditions: SW-620, 96 h
[23] = system: A549; test: Antiproliferative activity against human A549 cells assessed as reduction in cell viability incubated for 4 days by MTT assay; type: functional, cell-based; conditions: A549, 96 h
[24] = system: HepG2; test: Antiproliferative activity against human HepG2 cells assessed as reduction in cell viability incubated for 4 days by MTT assay; type: functional, cell-based; conditions: HepG2, 96 h
[25] = system: A-431; test: Antiproliferative activity against human A-431 cells assessed as reduction in cell viability incubated for 4 days by MTT assay; type: functional, cell-based; conditions: A-431, 96 h
[26] = system: HeLa; test: Antiproliferative activity against human HeLa cells assessed as reduction in cell viability; type: functional, cell-based
[27] = system: HepG2; test: Antiproliferative activity against human HepG2 cells assessed as reduction in cell viability; type: functional, cell-based
[28] = system: Hs-578T; test: Antiproliferative activity against human Hs-578T cells assessed as reduction in cell viability; type: functional, cell-based
[29] = system: HCT-116; test: Antiproliferative activity against human HCT-116 cells assessed as reduction in cell viability; type: functional, cell-based
[30] = system: A549; test: Antiproliferative activity against human A549 cells; type: functional, cell-based
[31] = system: HEK293; test: Antiproliferative activity against human HEK293 cells; type: functional
[32] = Antiproliferative activity against human HLF cells; type: functional
[33] = Anticancer activity against human Colon carcinoma cell; type: functional
[34] = system: Ovarian carcinoma cell; test: Anticancer activity against human Ovarian carcinoma cell; type: functional
[35] = Anticancer activity against human Melanoma tumor cell line; type: functional
[36] = system: HepG2; test: Anticancer activity against human HepG2 cells assessed as inhibition of cell proliferation at 50 uM measured after 24 hrs by MTT assay; type: functional, cell-based; conditions: HepG2, 24 h
[37] = system: NCI-H460; test: Antitumor activity against human NCI-H460 cells; type: functional, cell-based
[38] = system: NCI-H460; test: Potency index, ratio of MKT-077 IC50 to test compound IC50 for antitumor activity against human NCI-H460 cells; type: functional
[39] = system: HCT-116; test: Antiproliferative activity against human HCT-116 cells assessed as cell growth inhibition; type: functional

With O=S(=O)(Nc1ccc(-c2csc(N/N=C/c3ccc(N(CCCl)CCCl)cc3)n2)cc1)c1c(F)c(F)c(F)c(F)c1F the IC50 [1] was 3.02 µg/mL (≈ 4.54 µM), the IC50 [2] was 2170 nM and the IC50 [3] was 3.02 µg/mL (≈ 4.54 µM). For the same compound, the IC50 [4] was 2.17 µg/mL (≈ 3.27 µM), the IC50 [5] was 3.42 µg/mL (≈ 5.15 µM) and the IC50 [6] was 3.2 µg/mL (≈ 4.82 µM).
Compound c1ccc2cc(-c3csc(N4CCCC4)n3)ccc2c1 has an IC50 [7] of 5000 nM.
In the case of C/C(=N/Nc1nc(-c2cc3ccccc3oc2=O)cs1)c1cc2ccccc2oc1=O, the Activity [8] is reported as 50%.
Cc1cc(Cl)ccc1NC(=O)c1sc(-c2ccccc2Cl)nc1C(F)(F)F gave an Activity [9] of 48% and an Activity [10] of 40%.
For Cc1c(-c2csc(N)n2)sc2sc(-c3csc(N)n3)c(-c3ccccc3)c12, the IC50 [11] was 24200 nM and the Activity [12] was >30%.
With Cc1ccc(C2NC(=S)Nc3nc(Nc4ccc(S(N)(=O)=O)cc4)sc32)cc1 (centres undefined) the IC50 [13] was 43000 nM.
For CC(=O)c1cccc(-c2csc(N3CCOCC3)n2)c1, the IC50 [14] was 380 nM.
c1ccc(Nc2nc3ccc4cn[nH]c4c3s2)cc1 gave a % viability reduction [15] of 72.1% and a % viability reduction [16] of 78.8%.
With C/C(=N/NC(=O)c1sc(=S)n(-c2ccccc2)c1N)c1cccnc1 the GI50 [17] was 42.8 nM, the GI50 [18] was 94 nM and the GI50 [19] was 94 nM.
For CC1CCN(c2nc(-c3ccc4ccccc4c3)cs2)CC1, the Activity [20] was 57%.
Compound O=C(CCl)Nc1ccc2nc(SCC(=O)Nc3ccc(Br)cn3)sc2c1 has an IC50 [21] of 1.2 nM, an IC50 [22] of 4.3 nM and an IC50 [23] of 44 nM. It also gave an IC50 [24] of 48 nM and an IC50 [25] of 20 nM.
Compound CNc1nc(CC(=O)N/N=C/c2coc3ccccc3c2=O)cs1 has an IC50 [26] of 823 nM, an IC50 [27] of 5080 nM and an IC50 [28] of 4950 nM.
With CCCCCCCC(=O)SCC/C=C/[C@@H]1CC(=O)NCc2nc(cs2)C2=N[C@@](C)(CS2)C(=O)N[C@@H](c2ccc(O)cc2)C(=O)O1 the IC50 [29] was 390 nM, the GI50 [30] was 1460 nM and the GI50 [31] was > 100000 nM. For the same compound, the GI50 [32] was > 100000 nM.
For Cc1nn2c(SCC(=O)Nc3nccs3)nc3ccccc3c2nc1=O, the GI50 [33] was 450 nM, the GI50 [34] was 250 nM and the GI50 [35] was 480 nM.
Work on NS(=O)(=O)c1ccc(N2C(=O)CSC2c2ccc([N+](=O)[O-])cc2)cc1 (centres undefined) yielded an IC50 [36] of 46000 nM.
For CCN1C(=O)/C(=C2\Sc3ccccc3N2C)S/C1=N\[n+]1cccc2ccccc21.[I-], the IC50 [37] was 6 nM and the “Ratio IC50” value [38] was 216.7.
Work on Clc1nccc2c(-c3csc(-c4c[nH]c5ncc(Br)cc45)n3)c[nH]c12 yielded a GI50 [39] of 2350 nM.
